Experimental findings from publication PMC2754199 (Journal of biomolecular screening, 2008) are described below.

The assay deals with calpain. Put plainly: cell-based luminescent calpain activity assay.

Broadly, the EC50 is the concentration at which the effect is half-maximal. Read a low EC50 as a more potent agent.

Peptide text beside a SMILES is read from it. * marks the point of attachment. Cbz = O=C(OCc1ccccc1)*

As to `CC(C)[C@H](NC(=O)OCc1ccccc1)C(=O)N[C@H](C=O)Cc1ccccc1` [MDL-28170] (Cbz-Val-Phe-aldehyde), it took 14 ± 1.4 µM to reach a half-maximal effect (EC50).
